Entries after “also recorded” stand apart in the source; their conditions may differ.
Test system: Sprague-Dawley rats
Assay: Copulatory activity (sexual behaviour) test in male rats with very short ejaculation latency
Format: in vivo, rat
Settings: for ejaculation latency (EL) / intromission frequency (IF) / intromission latency (IL) / mount frequency (MF) / mount latency (ML) / postejaculatory interval (PEI): 45 min before test, mean ± SEM (n = 8-10)
Method: The resulting extract was solubilised in Tween 80 (10%) and water and administered to test animals through a gastric probe, in a volume of 5 ml/kg, at different doses, 45 minutes before the in vivo test. Sprague-Dawley rats were used, both males (weighing approx. 220 g) and females (weighing approx. 160 g), from Harlan Italy (Udine, Italy). The animals were housed under controlled temperature and humidity conditions (22±1° C., 60% humidity), with 12 hours inverted light-darkness cycle, with lights on at 7 a.m. Females were ovariectomized and subcutaneously injected with estradiol valerate (500 μg) and progesterone (2 mg) 48 hours after, to induce estrus. Male rats with very short ejaculation latency time were chosen through starting screening consisting of 7 pre-tests [A. Ågmo, Male rat sexual behavior, Brain Research Protocols 1: 203-209, 1997]. The resulting extract according to Example II or rosmarinic acid were solubilised in Tween 80 (10%) and water and administered to animals, by gastric probe, in a volume of 5 ml/kg, at different doses, 45 minutes before carrying out all the in vivo tests. Sexual behaviour was evaluated under quite conditions, with feeble red light, according to the standard procedure [A. Ågmo, Male rat sexual behavior, Brain Research Protocols 1: 203-209, 1997]. The main parameters recorded during the test were: 1) mount latency (ML); 2) intromission latency (IL); 3) ejaculation latency (EL); 4) postejaculatory interval (PEI); 5) mount frequency (MF); 6) intromission frequency (IF).

[1] = rosmarinic acid 10 mg/kg by gastric probe
[2] = rosmarinic acid 20 mg/kg by gastric probe

## O=C(/C=C/c1ccc(O)c(O)c1)O[C@H](Cc1ccc(O)c(O)c1)C(=O)O [Rosmarinic acid, rosmarinic acid]
[1]
  ejaculation latency (EL): 1282.2 ± 90.4 s
  intromission frequency (IF): 19.8 ± 1.2 n°
  intromission latency (IL): 393.9 ± 89.8 s
  mount frequency (MF): 1.6 ± 0.3 n°
  mount latency (ML): 382.4 ± 93.6 s
  postejaculatory interval (PEI): 548.5 ± 45.5 s
[2]
  ejaculation latency (EL): 1493.1 ± 81.9 s
  intromission frequency (IF): 27.3 ± 0.7 n°
  intromission latency (IL): 408.4 ± 48.6 s
  mount frequency (MF): 1.1 ± 0.1 n°
  mount latency (ML): 425.8 ± 83.2 s
  postejaculatory interval (PEI): 602.2 ± 102.4 s
Rosmarinic acid, doses of 10 and 20 mg/kg, same experimental conditions
  activity on copulatory activity / ejaculation latency compared with the extract (in words): equivalent activity to that of the extract; also recorded: same results

Reference: patent publication US7976878B2, “Use of winter savory (Satureja montana) or the extracts thereof for the preparation of medicaments for the treatment of the premature ejaculation” (Indena S.p.A., priority 2004, dated 2011)
